Results reported in patent publication US7713527B2, “Specific avian egg antibodies for disease prevention and improvement of growth performance” (priority 2006, dated 2010).
Where two headings read alike, the source gives them in different places.

Type: in vivo
Settings: Mecadox 1.0% in diet, no SDEP
Method: Thirty-six 18 day old piglets (6.3±0.2 kg) were allocated to six treatment groups, blocked by weight and given ad libitum access to feed and water (n=6/group)
Each group was administered varying doses of SDEP containing antibodies to ETEC K88 and/or antibiotics for 28 days (Table 1).
Animals were weighed at the end of phase 1 (14 d) and phase 2 (28 d), and average daily gains were calculated.
Thirty six crossbred (GAP Genetics, Winnipeg, MB, Canada) 18-d old pigs with an initial weight of 6.3±0.2 kg were allotted into six treatment groups: (1) control; (2) 0.1% SDEP; (3) 0.1% SDEP+antibiotics; (4) control+antibiotics; (5) 0.4% SDEP; (6) 0.4% SDEP+antibiotics.
Pigs were housed in stainless steel pens equipped with nipple waterers, stainless steel feeders, and plastic-coated expanded metal floors. The pens were located in an environmentally regulated building maintained at 25±2° C. with a 12-h light/dark cycle. Body weight and feed consumption were recorded after every phase and ad libitum access to feed and water was provided during the entire period of the study.
There were three pens per treatment and two pigs per pen. The pigs were fed a standard pig starter diet in phases 1 (Table 3) and 2 (Table 4). The diets were with or without spray-dried egg powder (SDEP) containing E. Coli K-88 antibodies and with or without antibiotics. The diets were fed in two phases. Both phases were fed for 14 days each. Pigs were allotted to treatments based on weaned weights and dam. Feed and water was available always. Pigs and feeders were weighed at the end of each phase to determine weight gains and feed disappearance.

In the case of COC(=O)N/N=C/c1c[n+]([O-])c2ccccc2[n+]1[O-] [Mecadox], the “Avg. daily gain / ADG” value (phase 1 (days 0-14)) is reported as 240 g, the “Avg. daily intake / ADFI” value (phase 1 (days 0-14)) is reported as 328 g and the Mean feed/gain (phase 1 (days 0-14)) is reported as 1.63. The “Mean final weight / End Weight” value (phase 1 (days 0-14)) was 9.6 kg, the “G:F” value (phase 1) was 0.72 and the “Avg. daily gain / ADG” value (phase 2 (days 14-28)) was 421 g. For the same molecule, the “Avg. daily intake / ADFI” value (phase 2 (days 14-28)) was 532 g, the Mean feed/gain (phase 2 (days 14-28)) was 1.35 and the “Mean final weight / End Weight” value (phase 2 (days 14-28)) was 15.4 kg. For the same molecule, the “G:F” value (phase 2) was 0.74.
